Data published in US9994515B2, “Aryl naphthyl methanone oxime(s) and process for preparation thereof” (Council of Scientific & Industrial Research, priority 2013, dated 2018).
Structures can show the parent of a compound that is named as a salt.

Key:
[1] = tested on: PBMCs from patients with BCR-ABL T315I mutation; test: MTT cytotoxicity in PBMCs from CML patient with T315I BCR-ABL mutation; type: cell-based, human; conditions: 5 μM, 48 h
[2] = tested on: PBMCs isolated from healthy individuals; test: MTT cytotoxicity in PBMCs from healthy controls; conditions: 1 μM, 48 h
[3] = biological target: T1, Her2 (Homo sapiens, UniProt P04626); test: Her2 phosphorylation ELISA in MDA-MB-231 cells; type: cell-based
T1 construct: Serum starved (A,C) MCF-7 cells and (B,D) MDA-MB231 cells were pre-incubated for 1 h; endogenous in cells; host or cells: MCF-7
T1 sequence (P04626 23-1255): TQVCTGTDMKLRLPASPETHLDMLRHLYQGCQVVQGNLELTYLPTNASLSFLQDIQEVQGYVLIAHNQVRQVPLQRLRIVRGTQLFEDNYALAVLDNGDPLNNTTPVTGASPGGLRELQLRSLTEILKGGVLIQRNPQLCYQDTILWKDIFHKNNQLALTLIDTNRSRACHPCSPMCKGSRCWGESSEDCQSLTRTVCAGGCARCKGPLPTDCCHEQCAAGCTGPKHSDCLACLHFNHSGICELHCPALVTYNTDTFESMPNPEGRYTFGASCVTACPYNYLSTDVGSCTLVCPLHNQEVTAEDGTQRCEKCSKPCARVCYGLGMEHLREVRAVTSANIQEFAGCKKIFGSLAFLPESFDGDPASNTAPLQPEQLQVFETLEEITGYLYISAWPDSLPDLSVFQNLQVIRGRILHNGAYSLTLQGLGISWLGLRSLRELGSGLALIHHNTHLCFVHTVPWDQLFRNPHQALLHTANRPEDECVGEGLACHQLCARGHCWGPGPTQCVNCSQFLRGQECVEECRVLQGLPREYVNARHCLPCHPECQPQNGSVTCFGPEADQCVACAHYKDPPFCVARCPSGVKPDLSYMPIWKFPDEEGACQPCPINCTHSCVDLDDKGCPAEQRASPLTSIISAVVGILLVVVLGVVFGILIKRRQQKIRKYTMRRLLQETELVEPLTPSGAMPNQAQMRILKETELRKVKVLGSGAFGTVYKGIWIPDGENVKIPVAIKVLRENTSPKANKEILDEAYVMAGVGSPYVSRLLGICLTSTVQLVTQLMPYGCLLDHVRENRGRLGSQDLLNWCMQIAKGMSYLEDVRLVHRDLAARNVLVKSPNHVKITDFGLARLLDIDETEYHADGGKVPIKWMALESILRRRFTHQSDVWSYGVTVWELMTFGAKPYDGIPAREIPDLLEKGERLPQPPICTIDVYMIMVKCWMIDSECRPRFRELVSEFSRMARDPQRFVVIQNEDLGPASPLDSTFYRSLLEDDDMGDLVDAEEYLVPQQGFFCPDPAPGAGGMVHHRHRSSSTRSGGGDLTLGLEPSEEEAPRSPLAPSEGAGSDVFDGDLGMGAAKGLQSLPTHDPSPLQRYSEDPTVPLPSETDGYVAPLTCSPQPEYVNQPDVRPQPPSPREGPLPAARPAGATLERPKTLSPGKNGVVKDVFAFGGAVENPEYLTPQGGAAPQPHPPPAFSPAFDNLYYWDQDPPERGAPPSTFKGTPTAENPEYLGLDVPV
Description: (§1) Since EGFR and Her2 play major roles in breast cancer development and metastatis, the effect of Centans on regulation of these two factors was evaluated in MCF-7 and MDA-MB-231 cells by enzyme-linked immunosorbant assays (ELISA). As depicted in FIGS. 7. A and B, EGF dependent EGFR phosphorylation at Tyr^1068 was strongly attenuated by Centans in both MCF-7 and MDA-MB-231 cells and this effect was much stronger than that of Gefitinib (marketted EGFR inhibitor/anti-cancer drug).
(§2) FIG. 7. Inhibition of EGFR and Her2 phosphorylation by Centans in MCF-7 and MDA-MB231 cells. Serum starved (A,C) MCF-7 cells and (B,D) MDA-MB231 cells were pre-incubated for 1 h with the indicated concentrations of Centans prior to stimulation with EGF for 15 min and EGFR (A and B) or Her2 (C and D) phosphorylation were measured by ELISA. Gef=Gefitinib. All doses are in μM.

[4] = tested on: PBMCs isolated from BCR-ABL-positive CML patients; test: MTT cytotoxicity in PBMCs from BCR-ABL-positive CML patients; conditions: 1 μM, 48 h; for % cell death, Average: group average
[5] = tested on: K562; test: Differentiation of K562 cells (Wright-Giemsa staining); type: cell-based; conditions: 0.5 μM; 3, 6 and 12 days
Excerpt: In order to clarify whether the inhibitory effects of Centans on the growth and cell cycle of K562 cells was followed by differentiation, Centans treated cells was stained with Wright-Giemsa stain. […] This differentiation was much more pronounced at 12d, where mature megakaryocytes were visible (FIG. 4A). Confirmation of Centans-mediated megakaryocytic differentiation was attained through measurement of expression of relevant cell differentiation markers by quantitative real time PCR. mRNA expression levels of cluster of differentiation 10 (CD10) (transiently present during B-cell maturation at early-B and pre-B lymphoblastic stages and related to megakaryocytic differentiation), CD36 (erythroid differentiation lineage), GATA2 (Over expression of GATA-2 inhibits erythroid and promotes megakaryocyte differentiation) and CD61 (megakaryocytic differentiation marker) was measured.
FIG. 4. CentANS induces Differentiation in K562 cells. […] (B) Expression of differentiation Markers—K562 cells were treated with vehicle; V (DMSO) or centANS and mRNA from these cells were isolated and reverse transcribed. cDNA was used to measure the expression CD10, GATA2, CD61, (megakaryocytic lineage markers) and CD36 (Erythroid lineage marker) by Quantitative Real time PCR, GAPDH was used as control. […]

[6] = tested on: HL-60; test: Differentiation of HL-60 cells (Wright-Giemsa staining, NBT reduction); type: cell-based; conditions: 1 μM; 3, 6 and 12 days
Description: Differentiation potential of Centans on HL-60 cells was evaluated by the effect of this compound on Nuclear/cytosolic ratio and change in nuclear morphology, which are reliable markers of differentiation. For this, HL60 cell treated with Centans were cyto-spinned on microscope slides and stained with Wright-Giemsa and micro-photographed. […] This was further confirmed by nitro blue tetrazolium (NBT) reduction assay in HL-60 cells (NBT reduction is a hallmark of monocyte activity). FIG. 5A (lower panel) depicts time-dependent reduction of NBT by Centans-treated cells.
FIG. 5. Centans induces granulocytic/monocytic differentiation in HL-60 model of AML. A. HL60 cells treated with Centans (1 μM) for 3, 6 and 12 days were cytospinned on Microscope slides and stained with Giemsa and May Grünwald solutions (upper panel) or NBT (lower panel), slides were microphotographed and used to detect change in nuclear morphology and NBT reduction. B. HL60 cells were treated with Vehicle (DMSO) or Centans as indicated in image, mRNA from these samples were isolated and reverse transcribed and these samples were used to measure the expression of CD11b GCSFR, and C/EBPα/β& ϵ by Quantitative real-time PCR, using GAPDH as normalizing control. Data presented as mean f SEM from three independent experiments; *P<0.05, **P<0.01, and ***P<0.001 compared to vehicle treated control.

[7] = tested on: K562; test: Cell cycle analysis (PI staining, flow cytometry) in K562; type: cell-based; conditions: 0.5 μM
Description: Propidium iodide (PI) staining of K562 cells (A) and HL-60 cells (B) treated with vehicle (DMSO) or 0.5 μM Centans, followed by flow cytometry analysis to find % distribution of cells in different phases of the cell cycle. Data has been shown as percent of total cells from data pooled from three independent experiments. (C and D). mRNA expression of cell cycle regulatory factors—K562 (C) or HL-60 (D) cells were treated with Vehicle or Centans, followed by mRNA isolation and cDNA preparation and quantitative real-time PCR (p21, p27 and cyclin D1). Graphs represented pooled data from three independent experiments. *P<0.05, **P<0.01,***P<0.001 compared to vehicle treated control.

[8] = biological target: T1, Her2; test: Her2 phosphorylation ELISA in MCF-7 cells; type: cell-based
Description: as §1, §2

[9] = tested on: MCF-7; test: MTT assay in MCF-7 breast tumor cells; type: cell-based; conditions: Homo sapiens, MCF7, Table 6, 48 h, 10 point dose response

CCN(CC)CCO/N=C(/c1ccc(SC)cc1)c1cccc2ccccc12 [Compound 5d, (4-(methylthio)phenyl)(naphthalen-1-yl)methanone O-2-(diethylamino)ethyl oxime oxalate]
% cell death [1]: 34.60%
% cell death ([2]; healthy control sample C1): 14.01%
% cell death ([2]; healthy control sample C2): 20.65%
% cell death ([2]; healthy control sample C3): 16.93%
% cell death, Average ([2]; healthy control, average of C1-C3): 17.2%
HER2 phosphorylation [3]: significantly reduced HER2 phosphorylation in a dose-dependent manner
% cell death ([4]; freshly diagnosed patient P1): 68.82%
% cell death ([4]; freshly diagnosed patient P10): 73.32%
% cell death ([4]; freshly diagnosed patient P11): 55.61%
% cell death ([4]; freshly diagnosed patient P15): 71.19%
% cell death, Average ([4]; freshly diagnosed): 67.235%
% cell death ([4]; imatinib resistant patient P2): 69.46%
% cell death ([4]; imatinib resistant patient P13): 70.03%
% cell death ([4]; imatinib resistant patient P14): 77.68%
% cell death ([4]; imatinib resistant patient P17): 78.93%
% cell death ([4]; imatinib resistant patient P18): 64.49%
% cell death, Average ([4]; imatinib resistant): 72.118%
% cell death ([4]; imatinib treated/responder patient P3): 50.92%
% cell death ([4]; imatinib treated/responder patient P12): 62.41%
% cell death ([4]; imatinib treated/responder patient P16): 76.59%
% cell death, Average ([4]; imatinib treated/responder): 63.31%
differentiation of K562 cells [5]: capable of inducing differentiation in K562 cells in a dose-dependent manner
differentiation of HL-60 cells [6]: morphological features of differentiation, such as condensation of nuclei and protrusion of cytoplasm, were clearly evident
cell cycle distribution [7]: G1 and apoptotic sub-populations were significantly increased
HER2 phosphorylation [8]: significantly reduced HER2 phosphorylation in a dose-dependent manner
IC50 [9]: 7.5 µM
